Test results published in patent US20240150313A1, “TRI-SUBSTITUTED INDOLE BINDING FUNCTION 3 (BF3) COMPOUNDS AND METHODS FOR THEIR USE” (The University of British Columbia, priority 2021, published 2024).
Entries after “also recorded” stand apart in the source; their conditions may differ. One block for each molecule: values may come before it.

Assays:
[1] = target: T1, androgen receptor (AR) transcriptional activity (Homo sapiens, UniProt P10275, T878A); assay: eGFP cellular AR transcription assay; conditions: for AR inhibition activity: eGFP assay; for IC50-eGFP: Table 4, substitution on quinoline moiety of VPC-13566
T1 sequence (P10275 1-920 T878A): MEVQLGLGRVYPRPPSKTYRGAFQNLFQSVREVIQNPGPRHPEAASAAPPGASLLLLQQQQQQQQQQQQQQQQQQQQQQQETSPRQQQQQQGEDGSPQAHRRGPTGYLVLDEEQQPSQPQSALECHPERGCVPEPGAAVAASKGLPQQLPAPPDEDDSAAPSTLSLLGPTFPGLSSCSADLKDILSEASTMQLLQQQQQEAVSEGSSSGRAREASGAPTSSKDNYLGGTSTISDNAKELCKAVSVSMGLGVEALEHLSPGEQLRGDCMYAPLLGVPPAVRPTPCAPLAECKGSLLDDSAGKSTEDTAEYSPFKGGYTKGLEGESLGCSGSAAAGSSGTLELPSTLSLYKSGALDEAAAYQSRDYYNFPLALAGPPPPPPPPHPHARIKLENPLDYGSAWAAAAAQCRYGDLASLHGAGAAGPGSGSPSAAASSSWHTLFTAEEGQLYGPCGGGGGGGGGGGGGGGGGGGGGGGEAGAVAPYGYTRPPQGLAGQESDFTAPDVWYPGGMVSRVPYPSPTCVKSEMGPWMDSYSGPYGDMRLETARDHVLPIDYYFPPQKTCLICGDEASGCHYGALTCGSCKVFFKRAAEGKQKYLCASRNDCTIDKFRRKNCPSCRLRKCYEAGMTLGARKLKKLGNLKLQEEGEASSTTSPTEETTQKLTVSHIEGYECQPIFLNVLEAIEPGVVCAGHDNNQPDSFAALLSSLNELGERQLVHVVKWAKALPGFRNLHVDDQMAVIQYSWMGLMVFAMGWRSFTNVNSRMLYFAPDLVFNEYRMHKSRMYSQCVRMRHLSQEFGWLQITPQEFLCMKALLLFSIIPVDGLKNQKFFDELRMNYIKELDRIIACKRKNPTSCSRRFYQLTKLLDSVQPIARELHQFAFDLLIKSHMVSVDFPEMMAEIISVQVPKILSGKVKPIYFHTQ

[2] = test system: AR-mediated PSA expression in LNCaP cells; assay: Prostate-Specific Antigen (PSA) assay; format: cell-based, human; conditions: Table 6
Procedure: Prostate-Specific Antigen (PSA) Assay: The evaluation of PSA levels secreted into the media was performed in parallel to the eGFP assay using the same plates.

[3] = test system: LNCaP xenograft castration-resistant mouse model; assay: Castration-resistant LNCaP xenograft: serum PSA and tumour growth; format: in vivo; conditions: oral treatment, listed as 13789 prodrug
Procedure: Assessment of Prostate […] Antigen and Tumour Growth for Castration-resistant LNCaP Xenografts: 6-8-Week-old nude mice (Harlan Sprague-Dawley) weighing 25-31 g were subcutaneously inoculated with LNCaP cells ([…] in BD Matrigel, BD Biosciences) at the posterior dorsal site. Tumor volume, body weight, and serum PSA levels were measured weekly. Mice were castrated when serum PSA levels reached 50 ng/ml. […] Calipers were used to measure the three perpendicular axes of each tumor to calculate the tumor volume.

[4] = Conversion of prodrug to parent drug in tissue homogenate; format: in vitro ADME; conditions: mouse small intestine tissue homogenate
[5] = Water solubility for dosing formulation; format: physicochemical; conditions: required concentration 3.75 mg/mL
Procedure: 13822 was water soluble and was formulated as plain aqueous solution at 3.75 mg/mL. […] A formulation screen was conducted to use various pharmaceutically acceptable surfactants and additives to develop a low organic solution or metastable heterogeneous suspension suitable for oral dosing.

[6] = Drug concentration in mouse blood and brain (HPLC, fluorescence); format: in vivo, mice (C57 Black 6)
Procedure: A Halo5 C18 column was used (3.0×50 mm, 5 μm particle size; injection volume: 1 μL) having a mobile phase A: 10% acetonitrile, 90% water, 10 mM NH4HCO3 and a mobile phase B: 80% acetonitrile, 20% water, 10 mM NH4HCO3, with a flow rate: 0.7 mL/min.
The dosing solutions were given to mice (C57 Black 6) by oral gavage at 8 μL per gram of body weight (rounded to the nearest 10 μL), corresponding to 30 mg/kg. After 3 h, the animals were euthanized, and then blood and brain samples were collected and stored at 4° C. until analysis.
Blood samples (clotted) were centrifuged at 9,000 RPM for 2 min×2. Aliquots of the serum (30 μL) were placed in 150 μL micro-centrifuge tubes and acetonitrile (30 μL) were added. The mixture was vortexed briefly and allowed to stand at room temperature for 30 min. Full brains were weighed into 2 mL micro-centrifuge tubes and equal amount of acetonitrile (w/v) was added. […] The samples were centrifuged at 9000 RPM for 2 min×2. The supernatants were transferred to HPLC sample vials with conical inserts, and then analyzed by HPLC.
All compounds were dosed orally to mice, and after 3 hours, the animals were euthanized and blood and brain samples were collected. Drug levels were analyzed by HPLC equipped with a fluorescence detector as described herein.

[7] = Microsomal stability (half-life); format: in vitro ADME, human; conditions: for half-life: Table 6
LNCaP cells = assay: Cell viability / proliferation assay (Prestoblue), LNCaP; format: cell-based, human; conditions: 0.1 nM R1881
Procedure: (§1) After 3 days of treatment, cell density was measured using the Prestoblue™ assay (Thermo Fisher Scientific™).

PC3 (AR negative) cells = assay: Cell viability / proliferation assay (Prestoblue), PC3; format: cell-based, human
Procedure: as §1

[8] = test system: androgen-mediated transcription in LNCaP cells; assay: RNA-seq / GSEA on LNCaP cells; format: cell-based, human; conditions: for GSEA normalized enrichment score (canonical AR genes): 10 nM DHT; for differentially expressed genes / downregulated genes / upregulated genes: compared to vehicle; for p53 pathway: with androgen
[9] = test system: chromatin binding of AR to enhancers near KLK3 and FKBP5; assay: ChIP-PCR of AR binding sites; format: cell-based
[10] = test system: nuclear accumulation of exogenous (293T) or endogenous (LNCaP) AR; assay: AR nuclear translocation; format: cell-based; conditions: 293T (exogenous) or LNCaP (endogenous), DHT
Excerpt: B) Heatmap of genes from the GSEA-MySigDB “Hallmark androgen response”. […] D) Nuclear translocation of exogenous (AR-eGFP in 293T) or endogenous (LNCaP) AR following treatment with DHT.

[11] = target: androgen binding site (ABS) of recombinant wild type LBD (Rattus norvegicus, UniProt P15207)
Chain of androgen binding site (ABS) of recombinant wild type LBD (P15207 651-882 limits assumed): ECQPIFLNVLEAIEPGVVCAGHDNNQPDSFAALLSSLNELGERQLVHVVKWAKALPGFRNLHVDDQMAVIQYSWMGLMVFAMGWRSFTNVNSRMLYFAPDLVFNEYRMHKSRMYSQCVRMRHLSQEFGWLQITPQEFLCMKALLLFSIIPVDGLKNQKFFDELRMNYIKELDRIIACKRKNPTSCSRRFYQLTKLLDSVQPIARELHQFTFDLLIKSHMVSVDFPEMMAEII

[12] = test system: AR protein-protein interactions on chromatin; assay: RIME of the AR interactome; conditions: DHT treated cells
[13] = human, microsomes, read-out: Half-life

Molecule: Fc1cc2c(-c3ccc4c(-c5cnco5)cccc4n3)c[nH]c2c(F)c1F [Compound 13794]
IC50 ([2]; Homo sapiens, LNCaP): > 10 µM | IC50 [1]: > 10 µM

Molecule: Cc1ccc2c(-c3ccc4ccccc4n3)c[nH]c2c1F [Compound 13619]
AR inhibition activity [1]: weaker or even inactive

Molecule: Cc1cccc2c(-c3ccc4ccccc4n3)c[nH]c12 [Compound 13566, 2-(7-Methyl-1H-indol-3-yl)quinoline]
blood concentration level ([6]; compared with 13789): much lower | penetration of the blood-brain-barrier ([6]; mice, 3 hour time point): significantly penetrated the blood-brain-barrier | solubility in water [5]: not soluble in water at the required concentration

Molecule: CC(C)NC(=O)c1cccc2nc(-c3c[nH]c4c(F)c(F)c(F)cc34)ccc12 [Compound 13789, N-isopropyl-2-(5,6,7-trifluoro-1H-indol-3-yl)quinoline-5-carboxamide]
IC50 ([2]; Homo sapiens, LNCaP): 0.08 µM | effect on growth of LNCaP cells (LNCaP cells): concentration-dependent inhibition of growth; also recorded: significant decrease in the growth | effect on growth of PC3 cells (PC3 (AR negative) cells): not with AR-independent PC3 cells; also recorded: did not exhibit any inhibitory effect | microsome stability [7]: good microsome stability | half-life [7]: 206 (206.26) | metabolic stability judged from polar peaks in chromatograms ([6]; serum and brain samples): metabolically more stable | GSEA normalized enrichment score (canonical AR genes) [8]: −3.33 | differentially expressed genes [8]: 1514 genes | downregulated genes [8]: 967 | upregulated genes [8]: 547 | p53 pathway [8]: upregulation of the p53 pathway | chromatin binding of AR [9]: significantly reduced the chromatin binding of AR | nuclear accumulation of AR [10]: only marginally affected nuclear accumulation | % Disp. @ 1 uM (DHT displacement from the ABS site) ([11]; 1 uM): 4 ± 3.8% | ABS inhibition ([11]; 10 μM): no significant ABS inhibition | DHT displacement from ABS ([11]; various concentrations): Very little displacement | AR protein-protein interactions disrupted (of 112 enriched) [12]: 34

Molecule: Cc1cccc2c(-c3ccc4c(F)cccc4n3)c[nH]c12 [Compound 13623]
IC50-eGFP [1]: inactive

Molecule: OC(c1cccc2nc(-c3c[nH]c4c(F)c(F)c(F)cc34)ccc12)C(F)(F)F (stereo not drawn) [Compound 13804]
IC50 [1]: 32 µM

Molecule: Fc1cc(Cl)cc2c(-c3ccc4ccccc4n3)c[nH]c12 [Compound 13641]
AR inhibition activity [1]: weaker or even inactive

Molecule: CN(C)C(=O)c1cccc2nc(-c3c[nH]c4c(F)c(F)c(F)cc34)ccc12 [Compound 13791]
IC50 ([2]; Homo sapiens, LNCaP): > 10 µM | IC50 [1]: > 10 µM

Molecule: Cc1cccc2c(-c3ccc4c(O)cccc4n3)c[nH]c12 [Compound 13620]
IC50-eGFP [1]: inactive

Molecule: Fc1cc2c(-c3ccc4c(-c5cncs5)cccc4n3)c[nH]c2c(F)c1F [Compound 13793, 5-(2-(5,6,7-Trifluoro-1H-indol-3-yl)quinolin-5-yl)thiazole]
IC50 ([2]; Homo sapiens, LNCaP): 0.33 µM | half-life [7, 13]: 1.73 h

Molecule: CNC(=O)c1ccc(N2C(=S)N(c3ccc(C#N)c(C(F)(F)F)c3)C(=O)C2(C)C)cc1F [Enzalutamide, reference compound]
GSEA normalized enrichment score (canonical AR genes) [8]: −2.31 | differentially expressed genes [8]: 586 genes | downregulated genes [8]: 372 | upregulated genes [8]: 214 | p53 pathway [8]: not observed

Molecule: O=C(NC1CC1)c1cccc2nc(-c3c[nH]c4c(F)c(F)c(F)cc34)ccc12 [Compound 13795, N-Cyclopropyl-2-(5,6,7-trifluoro-1H-indol-3-yl)quinoline-5-carboxamide]
IC50 ([2]; Homo sapiens, LNCaP): 0.23 µM | microsome stability [7]: good microsome stability | half-life [7, 13]: 4.35 h

Molecule: CNC(=O)c1cccc2nc(-c3c[nH]c4c(F)c(F)c(F)cc34)ccc12 [Compound 13719]
IC50 ([2]; Homo sapiens, LNCaP): 0.13 µM

Second part, led by results:

IC50 [1]: > 10 µM
Molecule: CN(C)C(=O)c1c(F)ccc2nc(-c3c[nH]c4c(F)c(F)c(F)cc34)ccc12 [Compound 13803]

IC50 ([2]; Homo sapiens, LNCaP): 0.95 µM | IC50 [1]: 5.48 µM
Molecule: CNC(=O)c1c(F)ccc2nc(-c3c[nH]c4c(F)c(F)c(F)cc34)ccc12 [Compound 13796]

half-life [4]: ~2 h | solubility in water [5]: water soluble
Molecule: CC(C)NC(=O)c1cccc2nc(-c3cn(COP(=O)(O)O)c4c(F)c(F)c(F)cc34)ccc12 [Compound 13822]
tumour volume / growth in xenograft ([3]; up to 5 weeks): reduces tumor volume; also recorded: inhibited tumour growth to levels comparable with enzalutamide treatment | serum PSA production in xenograft [3]: inhibits PSA production; also recorded: reducing serum PSA levels

IC50 [2]: > 10 µM
Molecule: 2-(2-(5,6,7-Trifluoro-1H-indol-3-yl)quinolin-5-yl)thiazole [Compound 13801]

microsome stability [7]: good microsome stability
Molecule: O=C(NCC(F)F)c1cccc2nc(-c3c[nH]c4c(F)c(F)c(F)cc34)ccc12 [Compound 13808, N-(2,2-Difluoroethyl)-2-(5,6,7-trifluoro-1H-indol-3-yl)quinoline-5-carboxamide]

IC50 ([2]; Homo sapiens, LNCaP): 0.75 µM | IC50 [1]: 0.56 µM
Molecule: Fc1cc2c(-c3ccc4c(-c5cncs5)c(F)ccc4n3)c[nH]c2c(F)c1F [Compound 13799]

IC50 ([2]; Homo sapiens, LNCaP): 0.16 µM | microsome stability [7]: good microsome stability
Molecule: O=C(NCC1CC1)c1cccc2nc(-c3c[nH]c4c(F)c(F)c(F)cc34)ccc12 [Compound 13807, N-(Cyclopropylmethyl)-2-(5,6,7-trifluoro-1H-indol-3-yl)quinoline-5-carboxamide]

IC50 ([2]; Homo sapiens, LNCaP): 1.5 µM | IC50 [1]: 1.98 µM
Molecule: O=C(NC1CC1)c1c(F)ccc2nc(-c3c[nH]c4c(F)c(F)c(F)cc34)ccc12 [Compound 13797]

IC50 ([2]; Homo sapiens, LNCaP): > 10 µM | IC50 [1]: > 10 µM
Molecule: CC(C)NC(=O)c1c(F)ccc2nc(-c3c[nH]c4c(F)c(F)c(F)cc34)ccc12 [Compound 13802]
